Test results: patent publication US6825170B2, “6-O-acyl ketolide antibacterials” (Ortho-McNeil Pharmaceutical, Inc., priority 2001, dated 2004)
≈ marks a conversion by molar mass, not a printed value.

Tests used:
Assay in all cases: MIC, microdilution broth method (NCCLS)
Type in all cases: cell-based
Details in all cases: 35° C., 16-20 hours
E. faecalis ATCC29212 = test system: E. faecalis ATCC29212
Procedure: (§1) Minimal inhibitory concentration (MIC) has been an indicator of in vitro antibacterial activity widely used in the art. The in vitro antimicrobial activity of the compounds was determined by the microdilution broth method following the test method from the National Committee for Clinical Laboratory Standards (NCCLS). This method is described in the NCCLS Document M7-A4, Vol.17, No.2, “Methods for Dilution Antimicrobial Susceptibility Test for Bacteria that Grow Aerobically—Fourth Edition”, which is incorporated herein by reference.
(§2) In this method two-fold serial dilutions of drug in cation adjusted Mueller-Hinton broth are added to wells in microdilution trays. The test organisms are prepared by adjusting the turbidity of actively growing broth cultures so that the final concentration of test organism after it is added to the wells is approximately 5×10^4 CFU/well.
(§3) Following inoculation of the microdilution trays, the trays are incubated at 35° C. for 16-20 hours and then read. […] The amount of growth in the wells containing the test compound is compared with the amount of growth in the growth-control wells (no test compound) used in each tray. As set forth in Table 1, compounds of the present invention were tested against a variety of Gram positive and Gram negative pathogenic bacteria resulting in a range of activities depending on the organism tested.

S. aureus ATCC29213 = test system: S. aureus ATCC29213
Procedure: as §1, §2, §3

H. influenzae ATCC49247 = test system: H. influenzae ATCC49247
Procedure: as §1, §2, §3

S. pneumoniae ATCC49619 = test system: S. pneumoniae ATCC49619
Procedure: as §1, §2, §3

## CC[C@H]1OC(=O)[C@H](C)C(=O)[C@H](C)[C@@H](O[C@@H]2O[C@H](C)C[C@H](N(C)C)[C@H]2O)[C@](C)(OC(=O)SCc2ccc(-c3ncccn3)cc2)C[C@@H](C)C(=O)[C@H](C)[C@H]2NC(=O)O[C@@]21C [Compound 834]
E. faecalis ATCC29212
  MIC (C: E. faecalis ATCC29212): 0.12 µg/mL (≈ 0.145 µM)
S. aureus ATCC29213
  MIC (B: S. aureus ATCC29213): 0.5 µg/mL (≈ 0.605 µM)
H. influenzae ATCC49247
  MIC (E: H. influenzae ATCC49247): 8 µg/mL (≈ 9.67 µM)
S. pneumoniae ATCC49619
  MIC (D: S. pneumoniae ATCC49619): <0.015 µg/mL

## CCC1OC(=O)C(C)C(=O)C(C)C(OC2OC(C)CC(N(C)C)C2O)C(C)(OC(=O)OCC=Cc2ccc(-c3ncco3)cc2)CC(C)C(=O)C(C)C2NC(=O)OC12C (stereo not shown) [Compound 47]
E. faecalis ATCC29212
  MIC (C: E. faecalis ATCC29212): 0.06 µg/mL (≈ 0.0726 µM)
S. aureus ATCC29213
  MIC (B: S. aureus ATCC29213): 0.12 µg/mL (≈ 0.145 µM)
H. influenzae ATCC49247
  MIC (E: H. influenzae ATCC49247): 0.5 µg/mL (≈ 0.605 µM)
S. pneumoniae ATCC49619
  MIC (D: S. pneumoniae ATCC49619): ≦0.015 μg/mL

## CCC1OC(=O)C(C)C(=O)C(C)C(OC2OC(C)CC(N(C)C)C2O)C(C)(OC(=O)OCC=Cc2ccc(-n3cccn3)cc2F)CC(C)C(=O)C(C)C2NC(=O)OC12C (stereo not shown) [Compound 30]
E. faecalis ATCC29212
  MIC (C: E. faecalis ATCC29212): 0.06 µg/mL (≈ 0.0712 µM)
S. aureus ATCC29213
  MIC (B: S. aureus ATCC29213): 0.12 µg/mL (≈ 0.142 µM)
H. influenzae ATCC49247
  MIC (E: H. influenzae ATCC49247): 1 µg/mL (≈ 1.19 µM)
S. pneumoniae ATCC49619
  MIC (D: S. pneumoniae ATCC49619): ≦0.015 μg/mL

## CC[C@H]1OC(=O)[C@H](C)C(=O)[C@H](C)[C@@H](O[C@@H]2O[C@H](C)C[C@H](N(C)C)[C@H]2O)[C@](C)(OC(=O)SC/C=C/c2cnc3ccccc3c2)C[C@@H](C)C(=O)[C@H](C)[C@H]2NC(=O)O[C@@]21C [Compound 837]
E. faecalis ATCC29212
  MIC (C: E. faecalis ATCC29212): 0.25 µg/mL (≈ 0.303 µM)
S. aureus ATCC29213
  MIC (B: S. aureus ATCC29213): 2 µg/mL (≈ 2.42 µM)
H. influenzae ATCC49247
  MIC (E: H. influenzae ATCC49247): 8 µg/mL (≈ 9.68 µM)
S. pneumoniae ATCC49619
  MIC (D: S. pneumoniae ATCC49619): 0.12 µg/mL (≈ 0.145 µM)

## CC[C@H]1OC(=O)[C@H](C)C(=O)[C@H](C)[C@@H](O[C@@H]2O[C@H](C)C[C@H](N(C)C)[C@H]2O)[C@](C)(OC(=O)NN2CCCCC2)C[C@@H](C)C(=O)[C@H](C)[C@H]2NC(=O)O[C@@]21C [Compound 816]
E. faecalis ATCC29212
  MIC (C: E. faecalis ATCC29212): 1 µg/mL (≈ 1.38 µM)
S. aureus ATCC29213
  MIC (B: S. aureus ATCC29213): 16 µg/mL (≈ 22.1 µM)
H. influenzae ATCC49247
  MIC (E: H. influenzae ATCC49247): 16 µg/mL (≈ 22.1 µM)
S. pneumoniae ATCC49619
  MIC (D: S. pneumoniae ATCC49619): 0.5 µg/mL (≈ 0.69 µM)

## CC[C@H]1OC(=O)[C@H](C)C(=O)[C@H](C)[C@@H](O[C@@H]2O[C@H](C)C[C@H](N(C)C)[C@H]2O)[C@](C)(OC(=O)NN=C/C=C/c2ccc(-c3ncccn3)cc2)C[C@@H](C)C(=O)[C@H](C)[C@H]2NC(=O)O[C@@]21C [Compound 827]
E. faecalis ATCC29212
  MIC (C: E. faecalis ATCC29212): 1 µg/mL (≈ 1.18 µM)
S. aureus ATCC29213
  MIC (B: S. aureus ATCC29213): 1 µg/mL (≈ 1.18 µM)
H. influenzae ATCC49247
  MIC (E: H. influenzae ATCC49247): 8 µg/mL (≈ 9.42 µM)
S. pneumoniae ATCC49619
  MIC (D: S. pneumoniae ATCC49619): 0.12 µg/mL (≈ 0.141 µM)

## CC[C@H]1OC(=O)[C@H](C)C(=O)[C@H](C)[C@@H](O[C@@H]2O[C@H](C)C[C@H](N(C)C)[C@H]2O)[C@](C)(OC(=O)NNC(C)=O)C[C@@H](C)C(=O)[C@H](C)[C@H]2NC(=O)O[C@@]21C [Compound 812]
E. faecalis ATCC29212
  MIC (C: E. faecalis ATCC29212): 4 µg/mL (≈ 5.72 µM)
S. aureus ATCC29213
  MIC (B: S. aureus ATCC29213): >16 µg/mL
H. influenzae ATCC49247
  MIC (E: H. influenzae ATCC49247): >16 µg/mL
S. pneumoniae ATCC49619
  MIC (D: S. pneumoniae ATCC49619): 2 µg/mL (≈ 2.86 µM)

## CCC1OC(=O)C(C)C(=O)C(C)C(OC2OC(C)CC(N(C)C)C2O)C(C)(OC(=O)OCC=Cc2cccc(-c3ncccn3)c2)CC(C)C(=O)C(C)C2NC(=O)OC12C (stereo not shown) [Compound 15]
E. faecalis ATCC29212
  MIC (C: E. faecalis ATCC29212): 0.06 µg/mL (≈ 0.0717 µM)
S. aureus ATCC29213
  MIC (B: S. aureus ATCC29213): 0.12 µg/mL (≈ 0.143 µM)
H. influenzae ATCC49247
  MIC (E: H. influenzae ATCC49247): 0.5 µg/mL (≈ 0.597 µM)
S. pneumoniae ATCC49619
  MIC (D: S. pneumoniae ATCC49619): 0.03 µg/mL (≈ 0.0358 µM)

## CCC1OC(=O)C(C)C(=O)C(C)C(OC2OC(C)CC(N(C)C)C2O)C(C)(OC(=O)OCC=Cc2ccc(-c3cccs3)cc2)CC(C)C(=O)C(C)C2NC(=O)OC12C (stereo not shown) [Compound 50]
E. faecalis ATCC29212
  MIC (C: E. faecalis ATCC29212): 0.5 µg/mL (≈ 0.595 µM)
S. aureus ATCC29213
  MIC (B: S. aureus ATCC29213): 1 µg/mL (≈ 1.19 µM)
H. influenzae ATCC49247
  MIC (E: H. influenzae ATCC49247): 2 µg/mL (≈ 2.38 µM)
S. pneumoniae ATCC49619
  MIC (D: S. pneumoniae ATCC49619): 0.06 µg/mL (≈ 0.0713 µM)

## CC[C@H]1OC(=O)[C@H](C)C(=O)[C@H](C)[C@@H](O[C@@H]2O[C@H](C)C[C@H](N(C)C)[C@H]2O)[C@](C)(OC(=O)Nn2ccc(-c3ccc(-c4ncccn4)cc3)c2)C[C@@H](C)C(=O)[C@H](C)[C@H]2NC(=O)O[C@@]21C [Compound 824]
E. faecalis ATCC29212
  MIC (C: E. faecalis ATCC29212): 1 µg/mL (≈ 1.16 µM)
S. aureus ATCC29213
  MIC (B: S. aureus ATCC29213): 2 µg/mL (≈ 2.32 µM)
H. influenzae ATCC49247
  MIC (E: H. influenzae ATCC49247): 16 µg/mL (≈ 18.6 µM)
S. pneumoniae ATCC49619
  MIC (D: S. pneumoniae ATCC49619): 0.12 µg/mL (≈ 0.139 µM)

## CC[C@H]1OC(=O)[C@H](C)C(=O)[C@H](C)[C@@H](O[C@@H]2O[C@H](C)C[C@H](N(C)C)[C@H]2O)[C@](C)(OC(=O)NOCC#Cc2cnc3ccccc3c2)C[C@@H](C)C(=O)[C@H](C)[C@H]2NC(=O)O[C@@]21C [Compound 618]
E. faecalis ATCC29212
  MIC (C: E. faecalis ATCC29212): 0.06 µg/mL (≈ 0.0729 µM)
S. aureus ATCC29213
  MIC (B: S. aureus ATCC29213): 0.25 µg/mL (≈ 0.304 µM)
H. influenzae ATCC49247
  MIC (E: H. influenzae ATCC49247): 1 µg/mL (≈ 1.22 µM)
S. pneumoniae ATCC49619
  MIC (D: S. pneumoniae ATCC49619): 0.03 µg/mL (≈ 0.0365 µM)

## CCC1OC(=O)C(C)C(=O)C(C)C(OC2OC(C)CC(N(C)C)C2O)C(C)(OC(=O)OCC=Cc2cnc3ccccc3c2)CC(C)C(=O)C(C)C2NC(=O)OC12C (stereo not shown) [Compound 37]
E. faecalis ATCC29212
  MIC (C: E. faecalis ATCC29212): 0.06 µg/mL (≈ 0.0741 µM)
S. aureus ATCC29213
  MIC (B: S. aureus ATCC29213): 0.12 µg/mL (≈ 0.148 µM)
H. influenzae ATCC49247
  MIC (E: H. influenzae ATCC49247): 0.5 µg/mL (≈ 0.617 µM)
S. pneumoniae ATCC49619
  MIC (D: S. pneumoniae ATCC49619): ≦0.015 μg/mL

## CC[C@H]1OC(=O)[C@H](C)C(=O)[C@H](C)[C@@H](O[C@@H]2O[C@H](C)C[C@H](N(C)C)[C@H]2O)[C@](C)(OC(=O)N(C)NCc2ccc(-c3cnccn3)cc2)C[C@@H](C)C(=O)[C@H](C)[C@H]2NC(=O)O[C@@]21C [Compound 817]
E. faecalis ATCC29212
  MIC (C: E. faecalis ATCC29212): 0.25 µg/mL (≈ 0.298 µM)
S. aureus ATCC29213
  MIC (B: S. aureus ATCC29213): 2 µg/mL (≈ 2.38 µM)
H. influenzae ATCC49247
  MIC (E: H. influenzae ATCC49247): 8 µg/mL (≈ 9.54 µM)
S. pneumoniae ATCC49619
  MIC (D: S. pneumoniae ATCC49619): 0.06 µg/mL (≈ 0.0715 µM)

## CCC1OC(=O)C(C)C(=O)C(C)C(OC2OC(C)CC(N(C)C)C2O)C(C)(OC(=O)OCC=C(C)c2ccc(-c3ncccn3)cc2)CC(C)C(=O)C(C)C2NC(=O)OC12C (stereo not shown) [Compound 76]
E. faecalis ATCC29212
  MIC (C: E. faecalis ATCC29212): 0.12 µg/mL (≈ 0.141 µM)
S. aureus ATCC29213
  MIC (B: S. aureus ATCC29213): 0.25 µg/mL (≈ 0.294 µM)
H. influenzae ATCC49247
  MIC (E: H. influenzae ATCC49247): 1 µg/mL (≈ 1.18 µM)
S. pneumoniae ATCC49619
  MIC (D: S. pneumoniae ATCC49619): 0.03 µg/mL (≈ 0.0353 µM)

## CC[C@H]1OC(=O)[C@H](C)C(=O)[C@H](C)[C@@H](O[C@@H]2O[C@H](C)C[C@H](N(C)C)[C@H]2O)[C@](C)(OC(=O)NN(C(C)=O)S(=O)(=O)c2ccc(C)cc2)C[C@@H](C)C(=O)[C@H](C)[C@H]2NC(=O)O[C@@]21C [Compound 810]
E. faecalis ATCC29212
  MIC (C: E. faecalis ATCC29212): 0.5 µg/mL (≈ 0.586 µM)
S. aureus ATCC29213
  MIC (B: S. aureus ATCC29213): 2 µg/mL (≈ 2.34 µM)
H. influenzae ATCC49247
  MIC (E: H. influenzae ATCC49247): 4 µg/mL (≈ 4.69 µM)
S. pneumoniae ATCC49619
  MIC (D: S. pneumoniae ATCC49619): 0.06 µg/mL (≈ 0.0703 µM)

## C=CCSC(=O)O[C@]1(C)C[C@@H](C)C(=O)[C@H](C)[C@H]2NC(=O)O[C@]2(C)[C@@H](CC)OC(=O)[C@H](C)C(=O)[C@H](C)[C@H]1O[C@@H]1O[C@H](C)C[C@H](N(C)C)[C@H]1O [Compound 832]
E. faecalis ATCC29212
  MIC (C: E. faecalis ATCC29212): 0.5 µg/mL (≈ 0.715 µM)
S. aureus ATCC29213
  MIC (B: S. aureus ATCC29213): 4 µg/mL (≈ 5.72 µM)
H. influenzae ATCC49247
  MIC (E: H. influenzae ATCC49247): 8 µg/mL (≈ 11.4 µM)
S. pneumoniae ATCC49619
  MIC (D: S. pneumoniae ATCC49619): 0.25 µg/mL (≈ 0.358 µM)
